The values that follow are results of earlier work, collected in patent publication US11021501B2, “Creatine phosphate analog prodrugs, compositions and methods of use thereof” (Farmington Pharma Development, priority 2015, dated 2021).

SMILES strings stand for the structures. Where two headings read alike, the source gives them in different places.

Series [1] relates to creatine phosphate levels.
The conditions of series [2]: animals fed a diet containing up to 1%.

Take `CN(CC(=O)O)C(=N)N` [creatine]: the “overall increase of creatine phosphate levels” value in series [1] (creatine supplementation over weeks) is below 50%. Moreover, the “duration of increase in tissue creatine phosphate levels” value in series [1] (following oral creatine supplementation) is on record as above 14 days. For the same molecule, the “increase of cerebral creatine phosphate” value in series [1] (healthy volunteers, oral creatine administration) is recorded as “about 10%”.
On to `NC1=NCCN1CC(=O)O` [cyclocreatine], for which, in series [2], the adverse effects result is “do not exhibit adverse effects”.
For the molecule `CN(CC(=O)O)C(=N)N.O` [creatine monohydrate], where the note is “athletes and body builders, 2-3 gm/day”, the adverse side effects entry is given as “without adverse side effects”.
With `CN(CC(=O)O)C(=N)NP(=O)(O)O` [Creatine phosphate, creatine phosphate], the adverse side effects result (patients with cardiac diseases, intravenous injection up to 8 gm/day) is reported as “without adverse side effects”.
